Where a name gives a salt, the structure may show the parent alone.
Tests used:
[1] = format: physicochemical; conditions: phosphate buffer, pH 6.5
Protocol: Amorphous 9-E-(O-methyl)oxime of 11,12-dideoxy-3-de(2,6-dideoxy-3-C-methyl-3-O-methyl-α-L-ribohexopyranosyloxy)-6-O-methyl-12,11-(iminocarbonyl-(2-(3-(4-(3-pyridinyl)-1H-imidazol-1-yl)propyl)hydrazono))-3-oxoerythromycin (130 g) was suspended in 3L of isopropyl ether containing 3% ethanol. The suspension was heated to 60° C. overnight and stirring was continued at room temperature (about 20-25° C.) for an additional 3 days. The resulting solid was collected by filtration to give 81 g of the title compound; mp 177° C. […] The crystals were characterized by the powder X-ray diffraction pattern noted below.
To a solution of amorphous 9-E-(O-methyl)oxime of 11,12-dideoxy-3-de(2,6-dideoxy-3-C-methyl-3-O-methyl-α-L-ribohexopyranosyloxy)-6-O-methyl-12,11-(iminocarbonyl-(2-(3-(4-(3-pyridinyl)-1H-imidazol-1-yl)propyl)hydrazono))-3-oxoerythromycin (200 mg) in 3 mL of CH2 Cl2 was added 1.19 mL of 2M solution of methanesulfonic acid in CH2 Cl2. The solution was stirred at room temperature (about 20-25° C.) for 15 minutes, and the solvent was evaporated. The residue was dissolved in 2 mL of ethyl acetate, and to this solution was added 1 mL of isopropyl ether. The solution was concentrated to approximately 0.5 mL and was left standing at room temperature (about 20-25° C.). The resulting crystals were collected by filtration to 175 mg of the title compound; mp: 193-194° C. […]

[2] = Hygroscopicity of crystalline form; format: physicochemical; conditions: crystalline hemihydrate form of the free base

| Structure (SMILES) | water solubility of the resulting crystals [1] | hygroscopicity [2] |
| --- | --- | --- |
| CC[C@H]1OC(=O)[C@H](C)C(=O)[C@H](C)[C@@H](O[C@@H]2O[C@H](C)C[C@H](N(C)C)[C@H]2O)[C@](C)(OC)C[C@@H](C)/C(=N\OC)[C@H](C)[C@H]2N(NCCCn3cnc(-c4cccnc4)c3)C(=O)N[C@]12C [Example 2, Methanesulfonic Acid Salt of 9-E-(O-Methyl)oxime of 11,12-dideoxy-3-de(2,6-dideoxy-3-C-methyl-3-O-methyl-α-L-ribohexopyranosyloxy)-6-O-methyl-12,11-(iminocarboxyl-(2-(3-(4-(3-pyridinyl)-1H-imidazol-1-yl)-propyl)hydrazo))-3-oxoerythromycin] | 24 mg/mL | – |
| CC[C@H]1OC(=O)[C@H](C)C(=O)[C@H](C)[C@@H](O[C@@H]2O[C@H](C)C[C@H](N(C)C)[C@H]2O)[C@](C)(OC)C[C@@H](C)/C(=N\OC)[C@H](C)[C@H]2N(NCCCn3cnc(-c4cccnc4)c3)C(=O)N[C@]12C [Example 1, 9-E-(O-Methyl)oxime of 11,12-Dideoxy-3-de(2. 6-dideoxy-3-C-methyl-3-O-methyl-α-L-ribohexopyranosyloxy)-6-O-methyl-12,11-(iminocarbonyl-(2-(3-(4-(3-pyridinyl)-1H-imidazol-1-yl)propyl)hydrazono))-3-oxoerythromycin hemihydrate] | greater than 11 mg/ml | non-hygroscopic |

Source: US6258785A, “Crystalline 9-E-(O-methyl)oxime of 11, 12-dideoxy-3-de(2,6-dideoxy-3-C-methyl-3-O-methyl-α-L-ribohexopyrano syloxy)-6-O-methyl-12,11-(iminocarbonyl-(2-(3-(4-(3-pyridinyl)1H-imadazol-1 -yl)propyl)hydrazono))-3-oxoerythromycin” (Pfizer Inc., priority 1999, dated 2001)
